Results reported in patent publication US20200129523A1, “SHIP INHIBITION TO INDUCE EXPRESSION OF GRANULOCYTE COLONY STIMULATING FACTOR IN A SUBJECT” (THE RESEARCH FOUNDATION FOR THE STATE UNIVERSITY OF NEW YORK, priority 2014, published 2020).

Tests used:
HSC compartment = experiment: Flow cytometric quantitation of hematopoietic stem/progenitor populations and cellularity in bone marrow of treated mice; format: in vivo, C57BL/6NTac mice
Procedure: HSC phenotype, cell-cycle progression, G-CSF neutralization, and CXCR4 MFI determination by FACS analysis was performed on whole bone marrow (WBM) cells harvested from a tibia and femur pair obtained from SHIPi and vehicle treated 8-12 week old male C57BL/6NTac mice (Taconic). Generation of the CD45.1×CD45.2 strain utilized in the CRU assay were obtained by intercrossing C57BL6/J (CD45.2) and B6.SJL (CD45.1), as previously described.^5 The SUNY Upstate Medical University Committee for Humane Use of Animals approved all animal experiments.
In vivo administration of 3AC was previously described.^14 Briefly, 3AC is resuspended as an emulsion in 0.3% Klucel/H20. Mice were treated via intraperitoneal injection every 24 hrs for 5 days at a final concentration of 26.5 mg/kg. Analysis and transplants were performed on day 6. The 3AC derivative K118 (Soluble SHIPi) was suspended in pure H2O and heated at 100° C. for ˜15 min to allow the compound to enter solution. The delivery method was the same as with 3AC, however, the mice were treated for 5 days at a final concentration of 10 mg/kg. Vehicle cohorts for 3AC were treated with 0.3% Klucel/H20 and K118 were treated with pure H2O.
Cell isolation was performed according to method detailed in Hazen et al.^6 Briefly, WBM was flushed from both femurs and tibias per mouse with a 25-gauge needle, red blood cell lysed (eBioscience), and resuspended in staining media comprised of Hanks Buffered Saline Solution (HBSS), 2% heat inactivated fetal bovine serum (FBS), and 10 mM HEPES (Sigma). The cells harvested for the CRU assay were flushed, red blood cell lysed, washed, and resuspended in sterile phosphate buffered saline (PBS). Peripheral blood mononuclear cells (PBMC) were collected via submandibular bleed in EDTA Micorvette tubes (SARSTEDT).
All antibodies were from BD Biosciences or eBioscience. All WBM, PBMC and BM derived MSC cell populations were Fc blocked on ice for 10 min prior to antibody staining. Global reconstitution was determined by staining PBMC with CD45.1-PeCy7 and CD45.2-APC. Multi-lineage repopulation was determined by staining PBMC with CD3-FITC (145-2C11), CD19-PerCP5.5 (1D3), Mac1-PE (M1/70), Gr1-Alexa700 (RB6-8C5) and NK1.1-APC-Cy7 (PK136). The Lin−cKit+Sca1+CD34−Flk2− (LSKF34−) phenotype was utilized to determine frequency of LT-HSC, ST-HSC, and MPP; the stain was comprised of Lin-PerCP 5.5, cKit-APC (2B8), Sca1-PeCy7 (D7), CD34-FITC (RAM34), Flk2-PE (A2F10). LSKF-CXCR4 stain was used to determine surface expression of the homing marker CXCR4. All cells were washed twice with staining media, resuspended in staining media plus DAPI for dead cell exclusion, and then analyzed on a flow cytometer LSRII (BD Biosciences). All flow cytometry data was analyzed using FlowJo (9.4.3) software.

LT-HSC = experiment: Cell cycle analysis of BM LT-HSC (Hoechst / Pyronin Y); format: in vivo, C57BL/6NTac mice; settings: 3AC 26.5 mg/kg i.p. 5 days, vs vehicle
Procedure: WBM cells were stained with LSKCD34 and fixed in BD Cytofix/Cytoperm buffer for 30 minutes on ice. Fixed cells were stained with 10 μM Hoechst 33342 (HO; Sigma-Aldrich) for 45 min at 37° C. The cells were then incubated with 5 μM Pyronin Y (PY; Sigma-Aldrich) in HBSS medium with 2% FBS in the presence of 50 μM verapamil (Sigma-Aldrich) for 30 minutes at 37° C., washed, and immediately analyzed by UV laser-equipped BD LSRII analyzer.

HSC = experiment: CRU assay (competitive repopulating units), primary and secondary; format: in vivo, mice
Procedure: CD45.1^+45.2^+-recipient mice were given a split dose of 550 Rads (x-ray source, RS2000-RAD source technologies, inc.) 4 hours apart for a lethal total dose of 1100 Rads. WBM (5×10^5) cells from 3AC (CD45.2) treated mice were competed with WBM cells from vehicle (CD45.1) treated mice and injected retro-orbitally into CD45.1^+45.2^+ hosts. PBMC multi-lineage reconstitution was evaluated every month post-transplant for 4 months. Transplanted mice were euthanized and serially transplanted to determine self-renewal capacity. Repopulating Units (RU) determination was previously decribed.^15 Briefly, RU=(C×CD45.2 repopulation %)/(100−CD45.2 repopulation %) where C=10^5 competitor cells.^6
Normal Repopulating units (RU) are calculated based on total number of competitor cells transplanted. Due to the expansion in the bone marrow compartment of SHIPi treated mice, we calculated the absolute RU numbers based on RU output determined by CRU assay and total BM cellularity. Total BM cellularity was determined via hemacytometer (BioRAD, TC20 cell counter) based on a total BM cells obtained from an intact set of femurs and tibias for each mouse in the study. Absolute RU=(Total BM cellularity/5×10^5)×RU.

PDGFRα+CD51+ MSC = experiment: In vivo MSC immunophenotyping by flow cytometry; design: species or system mice; settings: 3AC 26.5 mg/kg i.p. 5 days, vs vehicle
Procedure: PDGFRα^+CD51^+ MSC were detected using methods and reagents as described by Iyer et al.^8 Femurs, tibias, humeri, ulnas, radii, and pelvis were dissected; the bone fragments were cleaned, cut into tiny pieces, and then crushed using a mortar and pestle. The bone chips were then washed several times in HBSS supplemented with 2% heat-inactivated FBS (HBSS/2% HI-FBS) and HBSS only, and then spun at 350×g for 5 mins. The pellet was re-suspended in 3 mg/mL type I collagenase (Worthington) and 15 μg/mL DNAase (Sigma, St. Louis, Mo.) dissolved in HBSS and incubated at 37° C. for 30 min at 110 rpm, this step was repeated twice. Following incubation, mononuclear cells were obtained using a Ficoll gradient ([…] and Histopaque-1077; Sigma, St. Louis, Mo.), and were then used for further analysis. Cells were stained with antibodies as described in Iyer et al.^8

G-CSF = G-CSF ELISA of serum of treated mice; format: in vivo; settings: 3AC 26.5 mg/kg i.p. 5 days, vs vehicle
Procedure: Peripheral blood was collected in serum separation microvette tubes (SARSTEDT). Tubes were kept at room temperature for 2 hrs. and then spun at 2000×g for 20 min as per manufacturers recommendation. Serum levels of G-CSF in treated mice were determined using a Mouse G-CSF Quantikine Elisa kit (R&D systems).

[1] = system: radiation-induced myeloablation; experiment: Lymphocyte and WBC recovery in radiation induced bone marrow failure model; format: in vivo, C57BL/6J mice; settings: 550 Rads sub-lethal irradiation, 3AC daily 7 days i.p., vs vehicle
Procedure: We utilized a radiation-induced hematological myeblation to create our bone marrow failure model. C57BL/6J mice (8-12 week) (The Jackson Laboratory, Bar Harbor, Me.) were sub-lethally irradiated at 550 Rads. 3AC and vehicle were administered daily for 7 days post irradiation via IP injection. PB was collected by submandibular bleeding on days 8, 15, 22 and 32 and analyzed for WBC and lymphocyte counts [Thousands per microliter (K/uL)] on a Hemavet 950S (Drew Scientific, Waterbury, Conn., USA) analysis.

[2] = cited from earlier work
[3] = system: radiation-induced myeloablation; settings: post radiation-induced myeloablation; cited from earlier work
[4] = transient SHIPi treatment; cited from earlier work
[5] = 3AC 26.5 mg/kg i.p. 5 days, BM, vs vehicle
[6] = 3AC 26.5 mg/kg i.p. 5 days, vs vehicle

## CC(C)CCC[C@@H](C)[C@@H]1CC[C@H]2[C@@H]3CCC4C[C@H](N)CC[C@]4(C)[C@H]3CC[C@@]21C (stereo partly drawn) [3AC]
HSC compartment; [5]
  absolute number of LSK cells: significantly increases
  frequency of LSK cells: significantly increases
HSC compartment; 3AC 26.5 mg/kg i.p. 5 days, MFI by FACS
  CXCR4 surface expression on expanded HSC pool: does not cause a reduction
HSC compartment; [6]
  frequency of LT-HSC (LSKFlk2-CD34-) in BM: increases the frequency
  frequency of MPP (LSKFlk2+CD34+) in BM: increases the frequency
  frequency of ST-HSC (LSKFlk2-CD34+) in BM: increases the frequency
HSC compartment; 3AC 26.5 mg/kg i.p. 5 days, frequency combined with BM cellularity
  expansion in BM of cells with a primitive HSC phenotype: 3-4 fold
HSC compartment; 3AC 26.5 mg/kg i.p. every 24 hrs for 5 days, analysis day 6, vs vehicle
  bone marrow cellularity (BMC): significant increase
LT-HSC
  frequency of LT-HSC in S and G2 phases of the cell cycle: significantly greater frequency
HSC; BM of 3AC vs vehicle donors
  CRU frequency: increases
HSC; after accounting for total BM cellularity, vs vehicle
  increase in cells with HSC capacity (absolute CRU numbers): ~6 fold
HSC; primary CRU, 3AC-treated vs vehicle-treated donors, monthly for 4 months post-transplant
  global blood cell reconstitution by BM cells of treated donors: significantly greater
HSC; primary CRU, entire post-transplant period
  lineage reconstitution (B, T, NK, myeloid): greater proportion of all major blood cell lineages analyzed
HSC; secondary CRU hosts, 1 month post-transplant
  bias or impairment in lineage output after serial transfer: did not observe a significant bias or impairment
HSC; secondary CRU, vs competing vehicle BM
  repopulation of all major lineages in secondary hosts: significantly higher
PDGFRα+CD51+ MSC
  Pα+51+ MSC compartment size in BM: approximate doubling
G-CSF
  G-CSF production in vivo: super-induces
G-CSF; listed as SHIPi
  G-CSF production in vivo: increases
[1]
  recovery of lymphocyte numbers: significantly improved recovery
  recovery of white blood cell (WBC) numbers: significantly improved recovery
[2]
  aqueous solubility: poor aqueous solubility
[3]
  recovery of neutrophil numbers: more rapid recovery
  recovery of platelet numbers: more rapid recovery
[4]
  development of pulmonary and gastrointestinal inflammation: does not induce
